# ChEMBL document CHEMBL6083277, “Discovery of SZJK-0421: A Novel Potent, Low Toxicity, Selective Second Generation of CRM1 Inhibitor for the Treatment of Both Hematological and Solid Tumors” (J Med Chem, 2024)
# Calls of active or inactive are those of the source. The rule behind the calls is not given here.
# Assays:
# [1] = Metabolic stability in rat liver microsomes assessed as half life measured upto 60 mins in presence of NADPH by LC/MS-MS analysis; type: ADME, Microsome
# MM1.S [2] = assay: Induction of apoptosis in human MM1.S cells at 0.5 to 1 uM incubated for 48 hrs by Annexin V-FITC/PI staining based flow cytometry analysis; type: functional, cell-based; settings: dose 0.5-1 µM
# [3] = Metabolic stability in dog liver microsomes assessed as intrinsic clearance measured upto 60 mins in presence of NADPH by LC/MS-MS analysis; type: ADME, Canis lupus familiaris, Microsome; settings: read-out: CLH
# MM1.S [4] = assay: Inhibition of CRM1 protein expression in human MM1.S cells at 0.25 to 1.25 uM by Western blot analysis; type: functional, cell-based; settings: dose 0.25-1.25 µM, time 2-24 hrs
# [5] = Tmax in male Sprague-Dawley rat at 10 mg/kg, po measured upto 30 hrs by LC-MS/MS analysis; type: ADME, organism-based; settings: in vivo
# [6] = Toxicity in NOD-SCID mouse assessed as hyperplasia of crypt in intestine at 60 mg/kg, po measured every 2 days for 21 days by H and E staining based analysis; type: organism-based; settings: in vivo, 504 h, time 21 day
# [7] = Metabolic stability in rat liver microsomes assessed as intrinsic clearance measured upto 60 mins in presence of NADPH by LC/MS-MS analysis; type: ADME, Microsome; settings: read-out: CLH
# [8] = Metabolic stability in human liver microsomes assessed as half life measured upto 60 mins in presence of NADPH by LC/MS-MS analysis; type: ADME, Microsome
# [9] = AUC (0 to t) in male Sprague-Dawley rat at 10 mg/kg, po measured upto 30 hrs by LC-MS/MS analysis; type: ADME, organism-based; settings: in vivo
# [10] = Metabolic stability in human liver microsomes assessed as intrinsic clearance measured upto 60 mins in presence of NADPH by LC/MS-MS analysis; type: ADME, Microsome; settings: read-out: CLH
# [11] = AUC (0 to infinity) in male Sprague-Dawley rat at 10 mg/kg, po measured upto 30 hrs by LC-MS/MS analysis; type: ADME, organism-based; settings: in vivo
# [12] = Metabolic stability in mouse liver microsomes assessed as half life measured upto 60 mins in presence of NADPH by LC/MS-MS analysis; type: ADME, Microsome
# MM1.S [13] = assay: Inhibition of CRM1 protein expression in human MM1.S cells by Western blot analysis; type: functional, cell-based; settings: dose 0.25-1.25 µM
# [14] = Toxicity in BALB/c mouse assessed as animal death at 60 mg/kg, po measured on day 6,7 and 11; type: organism-based; settings: in vivo, 576 h, time 24 day
# [15] = AUC (0 to infinity) in male Sprague-Dawley rat at 2 mg/kg, iv measured upto 30 hrs by LC-MS/MS analysis; type: ADME, organism-based; settings: in vivo
# RPMI-8226 = assay: Antiproliferative activity against human RPMI-8226 cells assessed as inhibition of cell growth incubated for 72 hrs by celltiter-glo assay; type: functional, cell-based; settings: RPMI-8226, 72 h
# [16] = biological target: Ran-specific GTPase-activating protein (Homo sapiens, UniProt P43487); assay: Inhibition of RANBP1 nuclear export in human U2OS cells assessed as increase in fluorescence intensity measured for 15 mins by DAPI staining based fluorescence microscopic analysis; type: cell-based
# [17] = Toxicity in NOD-SCID mouse assessed as loss of crypt depth in intestine at 60 mg/kg, po measured every 2 days for 21 days by H and E staining based analysis; type: organism-based; settings: in vivo, 504 h, time 21 day
# MM1.S [18] = assay: Induction of apoptosis in human MM1.S cells assessed as increase in FOXO3A signal intensity; type: functional, cell-based
# MM1.S [19] = assay: Antiproliferative activity against human MM1.S cells assessed as inhibition of cell growth incubated for 72 hrs by celltiter-glo assay; type: functional, cell-based
# LAMA-84 = assay: Antiproliferative activity against human LAMA-84 cells assessed as inhibition of cell growth incubated for 72 hrs by celltiter-glo assay; type: functional, cell-based; settings: LAMA-84, 72 h
# [20] = Toxicity in BALB/c mouse assessed as appearance of erectile hair at 60 mg/kg, po administered once daily for 21 days; type: organism-based; settings: in vivo, 504 h, time 21 day
# BXPC-3 = assay: Antiproliferative activity against human BXPC-3 cells assessed as inhibition of cell growth incubated for 72 hrs by celltiter-glo assay; type: functional, cell-based; settings: BXPC-3, 72 h
# [21] = Oral bioavailability in male Sprague-Dawley rat at 10 mg/kg measured upto 30 hrs by LC-MS/MS analysis; type: ADME, organism-based; settings: in vivo
# SW872 = assay: Antiproliferative activity against human SW872 cells assessed as inhibition of cell growth incubated for 72 hrs by celltiter-glo assay; type: functional, cell-based; settings: SW872, 72 h
# [22] = Toxicity in BALB/c mouse assessed as decrease in body weight at 30 mg/kg, po administered once daily for 21 days; type: organism-based; settings: in vivo, 504 h, time 21 day
# [23] = Cmax in male Sprague-Dawley rat at 10 mg/kg, po measured upto 30 hrs by LC-MS/MS analysis; type: ADME, organism-based; settings: in vivo
# ARH-77 = assay: Antiproliferative activity against human ARH-77 cells assessed as inhibition of cell growth incubated for 72 hrs by celltiter-glo assay; type: functional, cell-based; settings: ARH-77, 72 h
# [24] = Metabolic stability in dog liver microsomes assessed as half life measured upto 60 mins in presence of NADPH by LC/MS-MS analysis; type: ADME, Canis lupus familiaris, Microsome
# [25] = Cmax in male Sprague-Dawley rat plasma at 10 mg/kg, IG measured at 6 hrs by LC-MS/MS analysis; type: ADME, organism-based; settings: po
# [26] = Toxicity in NOD-SCID mouse assessed as decrease in villus height to crypt depth ratio at 60 mg/kg, po measured every 2 days for 21 days by H and E staining based analysis; type: organism-based; settings: in vivo, 504 h, time 21 day
# [27] = Metabolic stability in monkey liver microsomes assessed as half life measured upto 60 mins in presence of NADPH by LC/MS-MS analysis; type: ADME, Macaca mulatta, Microsome; settings: rhesus monkey
# [28] = AUC in male Sprague-Dawley rat plasma at 10 mg/kg, IG measured at 6 hrs by LC-MS/MS analysis; type: ADME, organism-based; settings: po
# [29] = Half life in male Sprague-Dawley rat at 2 mg/kg, iv measured upto 30 hrs by LC-MS/MS analysis; type: ADME, organism-based; settings: in vivo
# [30] = Antiproliferative activity against human ARP-1 cells assessed as inhibition of cell growth incubated for 72 hrs by celltiter-glo assay; type: functional, cell-based; settings: ARP-1, 72 h
# [31] = Toxicity in BALB/c mouse assessed as appearance of loose stools at 60 mg/kg, po administered once daily for 21 days; type: organism-based; settings: in vivo, 504 h, time 21 day
# [32] = AUC (0 to t) in male Sprague-Dawley rat at 2 mg/kg, iv measured upto 30 hrs by LC-MS/MS analysis; type: ADME, organism-based; settings: in vivo
# [33] = biological target: Voltage-gated inwardly rectifying potassium channel KCNH2 (Homo sapiens, UniProt Q12809); assay: Inhibition of hERG in HEK293 cells; type: toxicity, cell-based
# [34] = Metabolic stability in monkey liver microsomes assessed as intrinsic clearance measured upto 60 mins in presence of NADPH by LC/MS-MS analysis; type: ADME, Macaca mulatta, Microsome; settings: rhesus monkey, read-out: CLH
# [35] = Metabolic stability in mouse liver microsomes assessed as intrinsic clearance measured upto 60 mins in presence of NADPH by LC/MS-MS analysis; type: ADME, Microsome; settings: read-out: CLH
# [36] = Toxicity in NOD-SCID mouse implanted with human MM1.S cells assessed as body weight loss at 15 mg/kg, po measured upto 21 days; type: organism-based; settings: in vivo, 504 h, time < 21 day
# HCT-116 = assay: Antiproliferative activity against human HCT-116 cells assessed as inhibition of cell growth incubated for 72 hrs by celltiter-glo assay; type: functional, cell-based; settings: HCT-116, 72 h
# AN3-CA = assay: Antiproliferative activity against human AN3-CA cells assessed as inhibition of cell growth incubated for 72 hrs by celltiter-glo assay; type: functional, cell-based
# MOLM-13 = assay: Antiproliferative activity against human MOLM-13 cells assessed as inhibition of cell growth incubated for 72 hrs by celltiter-glo assay; type: functional, cell-based; settings: MOLM-13, 72 h
# LoVo = assay: Antiproliferative activity against human LoVo cells assessed as inhibition of cell growth incubated for 72 hrs by celltiter-glo assay; type: functional, cell-based
# [37] = Toxicity in NOD-SCID mouse assessed as shortening of villi in intestine at 15 mg/kg, po measured every 2 days for 21 days by H and E staining based analysis; type: organism-based; settings: in vivo, 504 h, time 21 day
# [38] = Half life in male Sprague-Dawley rat at 10 mg/kg, po measured upto 30 hrs by LC-MS/MS analysis; type: ADME, organism-based; settings: in vivo
# MV4-11 = assay: Antiproliferative activity against human MV4-11 cells assessed as inhibition of cell growth incubated for 72 hrs by celltiter-glo assay; type: functional, cell-based; settings: MV4-11, 72 h
# [39] = AUC in male Sprague-Dawley rat brain at 10 mg/kg, IG measured at 6 hrs by LC-MS/MS analysis; type: ADME, organism-based; settings: po
# KMS-11 = assay: Antiproliferative activity against human KMS-11 cells assessed as inhibition of cell growth incubated for 72 hrs by celltiter-glo assay; type: functional, cell-based; settings: KMS-11, 72 h
# [40] = biological target: Exportin-1 (Homo sapiens) (UniProt O14980); assay: Reversible binding affinity to CRM1 in human U2OS cells incubated for 4 hrs by DAPI staining based fluorescence microscopic analysis; type: cell-based
# Sequence of Exportin-1 (Homo sapiens) (O14980 whole entry): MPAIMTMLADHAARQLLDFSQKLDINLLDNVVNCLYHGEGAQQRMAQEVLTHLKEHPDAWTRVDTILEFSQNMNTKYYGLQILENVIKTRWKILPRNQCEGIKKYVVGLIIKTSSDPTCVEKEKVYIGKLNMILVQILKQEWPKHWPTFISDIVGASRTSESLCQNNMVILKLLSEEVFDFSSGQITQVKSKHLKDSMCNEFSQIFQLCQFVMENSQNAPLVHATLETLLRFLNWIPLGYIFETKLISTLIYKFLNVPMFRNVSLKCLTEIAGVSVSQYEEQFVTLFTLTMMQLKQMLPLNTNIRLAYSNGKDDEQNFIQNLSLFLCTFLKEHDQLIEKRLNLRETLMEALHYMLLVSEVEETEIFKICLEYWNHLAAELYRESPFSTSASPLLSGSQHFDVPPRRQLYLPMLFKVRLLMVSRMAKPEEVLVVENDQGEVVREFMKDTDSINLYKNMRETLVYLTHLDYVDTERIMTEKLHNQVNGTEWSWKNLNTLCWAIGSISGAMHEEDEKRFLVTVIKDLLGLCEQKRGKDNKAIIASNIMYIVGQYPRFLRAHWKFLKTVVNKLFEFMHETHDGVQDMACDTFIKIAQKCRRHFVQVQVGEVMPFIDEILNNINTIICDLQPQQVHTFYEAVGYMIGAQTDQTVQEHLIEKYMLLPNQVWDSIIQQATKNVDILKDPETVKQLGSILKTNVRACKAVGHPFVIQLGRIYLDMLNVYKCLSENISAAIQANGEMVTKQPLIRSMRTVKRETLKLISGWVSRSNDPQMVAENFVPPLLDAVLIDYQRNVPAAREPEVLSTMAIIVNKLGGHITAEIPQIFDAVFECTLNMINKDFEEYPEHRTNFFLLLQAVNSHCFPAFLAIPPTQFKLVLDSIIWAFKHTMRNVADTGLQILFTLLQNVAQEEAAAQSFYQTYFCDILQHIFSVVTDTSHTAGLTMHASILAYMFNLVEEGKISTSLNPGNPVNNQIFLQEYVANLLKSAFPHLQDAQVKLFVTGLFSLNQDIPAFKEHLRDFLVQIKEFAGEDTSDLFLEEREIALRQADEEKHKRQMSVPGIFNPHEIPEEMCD
# Sequence of Voltage-gated inwardly rectifying potassium channel KCNH2 (Q12809 whole entry): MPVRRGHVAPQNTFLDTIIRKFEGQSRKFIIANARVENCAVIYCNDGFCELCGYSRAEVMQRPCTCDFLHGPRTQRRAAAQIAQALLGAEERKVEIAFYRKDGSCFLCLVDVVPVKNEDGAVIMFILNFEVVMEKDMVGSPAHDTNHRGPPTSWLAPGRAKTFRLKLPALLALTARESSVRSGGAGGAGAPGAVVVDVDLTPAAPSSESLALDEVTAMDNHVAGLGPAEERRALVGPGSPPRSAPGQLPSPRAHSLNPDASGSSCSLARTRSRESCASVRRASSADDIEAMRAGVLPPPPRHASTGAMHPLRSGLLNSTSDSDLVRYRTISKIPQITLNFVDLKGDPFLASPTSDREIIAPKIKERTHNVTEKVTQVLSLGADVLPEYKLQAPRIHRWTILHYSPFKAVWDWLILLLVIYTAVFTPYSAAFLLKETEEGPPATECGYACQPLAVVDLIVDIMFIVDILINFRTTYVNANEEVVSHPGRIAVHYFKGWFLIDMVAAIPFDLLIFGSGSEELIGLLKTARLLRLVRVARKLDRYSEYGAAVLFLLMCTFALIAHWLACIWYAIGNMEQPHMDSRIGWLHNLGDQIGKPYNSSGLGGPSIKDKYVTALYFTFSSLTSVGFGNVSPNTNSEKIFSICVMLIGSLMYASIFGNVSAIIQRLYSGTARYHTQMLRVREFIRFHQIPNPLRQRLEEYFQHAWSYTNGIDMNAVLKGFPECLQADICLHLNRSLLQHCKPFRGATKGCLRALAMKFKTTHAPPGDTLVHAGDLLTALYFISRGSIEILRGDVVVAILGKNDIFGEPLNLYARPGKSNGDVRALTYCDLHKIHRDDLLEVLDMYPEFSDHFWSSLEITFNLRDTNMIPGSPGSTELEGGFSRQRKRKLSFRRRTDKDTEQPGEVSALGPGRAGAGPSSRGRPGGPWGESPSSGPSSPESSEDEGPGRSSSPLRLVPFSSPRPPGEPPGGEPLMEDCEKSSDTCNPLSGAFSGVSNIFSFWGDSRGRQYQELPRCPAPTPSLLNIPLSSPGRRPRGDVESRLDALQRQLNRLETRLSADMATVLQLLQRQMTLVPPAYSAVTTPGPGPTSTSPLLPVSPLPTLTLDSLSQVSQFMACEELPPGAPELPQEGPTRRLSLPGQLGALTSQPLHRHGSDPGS
# Sequence of Ran-specific GTPase-activating protein (P43487 whole entry): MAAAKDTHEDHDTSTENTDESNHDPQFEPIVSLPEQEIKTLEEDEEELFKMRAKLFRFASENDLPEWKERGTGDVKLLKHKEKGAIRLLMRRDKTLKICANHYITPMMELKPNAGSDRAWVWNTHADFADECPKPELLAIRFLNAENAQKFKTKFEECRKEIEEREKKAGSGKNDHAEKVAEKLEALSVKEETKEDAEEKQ
smiles,measurement,setting,value
NC(=O)/C(=C/n1cnc(-c2cc(C(F)(F)F)cc(C(F)(F)F)c2)n1)c1cncnc1 [ELTANEXOR],half-life,[1],> 2 h
same,Activity,MM1.S [2],Active
same,microsomal CLint,[3],3.2 µL/min/mg
same,inhibition,MM1.S [4],Time-dependent-effect
same,Tmax,[5],1 h
same,Activity,[6],Non-toxic
same,microsomal CLint,[7],15.5 µL/min/mg
same,half-life,[8],> 2 h
same,AUC(0-t) at 30 h,[9],2540 ng·h/mL
same,microsomal CLint,[10],0.2 µL/min/mg
same,AUC(0-inf),[11],2590 ng·h/mL
same,half-life,[12],> 2 h
same,inhibition,MM1.S [13],Dose-dependent-effect
same,Activity,[14],Toxic
same,AUC(0-inf),[15],998 ng·h/mL
same,IC50,RPMI-8226,217 nM
same,IC50,[16],550 nM
same,Activity,[17],Non-toxic
same,Activity,MM1.S [18],Active
same,IC50,MM1.S [19],84.7 nM
same,IC50,LAMA-84,2910 nM
same,Activity,[20],Toxic
same,IC50,BXPC-3,2170 nM
same,bioavailability,[21],52%
same,IC50,SW872,1090 nM
same,Activity,[22],Non-toxic
same,Cmax,[23],720 ng/mL
same,IC50,ARH-77,435 nM
same,half-life,[24],> 2 h
same,Cmax,[25],141 ng/mL
same,Activity,[26],Non-toxic
same,half-life,[27],> 2 h
same,AUC at 6 h,[28],1940 ng·h/mL
same,half-life,[29],3 h
same,IC50,[30],2700 nM
same,Activity,[31],Toxic
same,AUC(0-t) at 30 h,[32],963 ng·h/mL
same,IC50,[33],8200 nM
same,microsomal CLint,[34],11.8 µL/min/mg
same,microsomal CLint,[35],15.6 µL/min/mg
same,Activity,[36],Toxic
same,IC50,HCT-116,130 nM
same,IC50,AN3-CA,1170 nM
same,IC50,MOLM-13,435 nM
same,IC50,LoVo,304 nM
same,Activity,[37],Non-toxic
same,half-life,[38],2.7 h
same,IC50,MV4-11,55.6 nM
same,AUC at 6 h,[39],83.3 ng·h/mL
same,IC50,KMS-11,1260 nM
same,Activity,[40],Active
